Like-named read-outs stand apart in the source and are kept apart here.
Columns and labels:
Assay type in all cases: in vivo
[1] = test system: common (oilseed) sunflower (Helianthus annuus); assay: Test C pre/postemergence; conditions: Helianthus annuus, pre-emergence, Preemergence, read-out: Plant response rating, Sunflower; for pest or weed control at 31 g/ha: 31 g ai/ha; for pest or weed control at 62 g/ha: 62 g ai/ha
Method in brief: (§1)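 Visual injury ratings, 0 (no effect) to 100 (complete control), made 12 to 14 days after treatment by comparison with untreated controls. Greenhouse plants received test chemical in a surfactant-containing non-phytotoxic solvent, either preemergence on planted seeds or postemergence at the 1- to 4-leaf stage.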

corn (Zea mays) = assay: Test C pre/postemergence; conditions: Zea mays; for Corn plant response rating (crop injury, 0 = no effect, 100 = complete kill) at 31 g/ha: 31 g ai/ha; for Corn plant response rating (crop injury, 0 = no effect, 100 = complete kill) at 62 g/ha: 62 g ai/ha; for Corn plant response rating (crop injury, 0 = no effect, 100 = complete kill) at 125 g/ha: 125 g ai/ha; for Corn plant response rating (crop injury, 0 = no effect, 100 = complete kill) at 16 g/ha: 16 g ai/ha
Method in brief: as §1

[2] = test system: chickweed (Stellaria media); assay: Test C postemergence; conditions: Stellaria media, post-emergence; for pest or weed control at 31 g/ha: 31 g ai/ha; for pest or weed control at 62 g/ha: 62 g ai/ha; for pest or weed control at 125 g/ha: 125 g ai/ha
Method in brief: as §1

[3] = test system: bearded (brdd.) sprangletop (Leptochloa fusca ssp. fascicularis); assay: Test E flooded paddy water application; conditions: Flood, 21 days, scale 0 to 100 (0 no effect, 100 complete control); for Plant response rating, Sprangletop, Brdd.: 16 g ai/ha
Method in brief: (§2)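 Weeds sown in sterilized Tama silt loam (2.6% organic matter), greenhouse 29.5/26.7° C, 16-h photoperiod; at 2.0–2.5-leaf stage pots flooded to 3 cm and compound added to paddy water. Visual rating vs untreated controls after 21 days, 0 (no effect) to 100 (complete control).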

[4] = test system: ducksalad (Heteranthera limosa); assay: Test E flooded paddy water application; conditions: Flood, 21 days, scale 0 to 100 (0 no effect, 100 complete control); for Plant response rating, Ducksalad: 16 g ai/ha
Method in brief: as §2

[5] = test system: early watergrass (Echinochloa oryzoides); assay: Test E flooded paddy water application; conditions: Flood, 21 days, scale 0 to 100 (0 no effect, 100 complete control); for Plant response rating, Watergrass, Early: 16 g ai/ha
Method in brief: as §2

[6] = test system: junglerice (Echinochloa colona); assay: Test E flooded paddy water application; conditions: Flood, 21 days, scale 0 to 100 (0 no effect, 100 complete control); for Plant response rating, Junglerice: 16 g ai/ha
Method in brief: as §2

[7] = test system: purple redstem (Ammannia coccinea); assay: Test E flooded paddy water application; conditions: Flood, 21 days, scale 0 to 100 (0 no effect, 100 complete control); for Plant response rating, Redstem: 16 g ai/ha
Method in brief: as §2

[8] = test system: rice flatsedge (Cyperus iria); assay: Test E flooded paddy water application; conditions: Flood, 21 days, scale 0 to 100 (0 no effect, 100 complete control); for Plant response rating, Flatsedge, Rice: 16 g ai/ha
Method in brief: as §2

[9] = test system: transplanted rice seedlings (Oryza sativa cv. ‘Japonica-M202’); assay: Test E flooded paddy water application; conditions: Flood, 21 days, scale 0 to 100 (0 no effect, 100 complete control); for Plant response rating, Rice, Transplanted: 16 g ai/ha
Method in brief: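 Greenhouse pots of Tama silt loam with weeds and rice at 2.0–2.5-leaf stage, flooded to 3 cm; compounds applied directly into paddy water, depth maintained. Visual rating versus untreated controls after 21 days, 0 (no effect) to 100 (complete control); 29.5/26.7 °C, 16-h photoperiod.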

[10] = test system: water seeded rice seedlings (Oryza sativa cv. ‘Japonica-M202’); assay: Test E flooded paddy water application; conditions: Flood, 21 days, scale 0 to 100 (0 no effect, 100 complete control); for Plant response rating, Rice, Water Seeded: 16 g ai/ha
Method in brief: as §2

[11] = scale 0 to 100, 0 no effect, 100 complete control
[12] = post-emergence, Postemergence, read-out: Plant response rating (scale of 0 to 100), Corn
[13] = post-emergence, Postemergence, scale 0 to 100 (0 no effect, 100 complete control), read-out: Corn plant response rating
[14] = pre-emergence, Preemergence, scale 0 to 100, 0 no effect, 100 complete control, read-out: Plant response rating, Corn
[15] = pre-emergence, Preemergence, scale 0 to 100, read-out: Plant response rating, Corn
[16] = read-out: Plant response rating (scale of 0 to 100), Chickweed
[17] = scale 0 to 100 (0 no effect, 100 complete control), read-out: Chickweed plant response rating

CCOC(=O)c1nc(-c2ccc(Cl)cc2)nc(N)c1Cl [Compound 64, ethyl 6-amino-5-chloro-2-(4-chlorophenyl)-4-pyrimidinecarboxylate]
80: Redstem plant response rating ([7]; 250 g ai/ha)
75: Plant response rating, Flatsedge, Rice [8]
0%: pest or weed control at 31 g/ha [1, 11] | pest or weed control at 62 g/ha [1, 11] | Corn plant response rating (crop injury, 0 = no effect, 100 = complete kill) at 31 g/ha (corn (Zea mays); [14]) | Corn plant response rating (crop injury, 0 = no effect, 100 = complete kill) at 62 g/ha (corn (Zea mays); [14]) | pest or weed control at 31 g/ha [2, 16] | pest or weed control at 62 g/ha [2, 17] | pest or weed control at 125 g/ha [2, 17]
85%: pest or weed control at 250 g/ha ([1]; 250 g ai/ha, scale 0 to 100)
50%: Corn plant response rating (crop injury, 0 = no effect, 100 = complete kill) at 62 g/ha (corn (Zea mays); [13]) | Corn plant response rating (crop injury, 0 = no effect, 100 = complete kill) at 125 g/ha (corn (Zea mays); [13])
0: Sprangletop, Brdd. plant response rating ([3]; 32 g ai/ha) | Sprangletop, Brdd. plant response rating ([3]; 64 g ai/ha) | Sprangletop, Brdd. plant response rating ([3]; 125 g ai/ha) | Sprangletop, Brdd. plant response rating ([3]; 250 g ai/ha) | Plant response rating, Sprangletop, Brdd. [3] | Watergrass, Early plant response rating ([5]; 32 g ai/ha) | Watergrass, Early plant response rating ([5]; 64 g ai/ha) | Watergrass, Early plant response rating ([5]; 125 g ai/ha) | Watergrass, Early plant response rating ([5]; 250 g ai/ha) | Plant response rating, Watergrass, Early [5] | Junglerice plant response rating ([6]; 32 g ai/ha) | Junglerice plant response rating ([6]; 64 g ai/ha) | Junglerice plant response rating ([6]; 125 g ai/ha) | Junglerice plant response rating ([6]; 250 g ai/ha) | Plant response rating, Junglerice [6] | Rice, Transplanted plant response rating ([9]; 32 g ai/ha) | Rice, Transplanted plant response rating ([9]; 64 g ai/ha) | Plant response rating, Rice, Transplanted [9] | Rice, Water Seeded plant response rating ([10]; 32 g ai/ha) | Rice, Water Seeded plant response rating ([10]; 64 g ai/ha) | Rice, Water Seeded plant response rating ([10]; 125 g ai/ha) | Rice, Water Seeded plant response rating ([10]; 250 g ai/ha) | Plant response rating, Rice, Water Seeded [10]
20%: Corn plant response rating (crop injury, 0 = no effect, 100 = complete kill) at 31 g/ha (corn (Zea mays); [12]) | Corn plant response rating (crop injury, 0 = no effect, 100 = complete kill) at 125 g/ha (corn (Zea mays); [15])
100: Ducksalad plant response rating ([4]; 32 g ai/ha) | Ducksalad plant response rating ([4]; 64 g ai/ha) | Ducksalad plant response rating ([4]; 125 g ai/ha) | Ducksalad plant response rating ([4]; 250 g ai/ha) | Plant response rating, Ducksalad [4] | Flatsedge, Rice plant response rating ([8]; 125 g ai/ha) | Flatsedge, Rice plant response rating ([8]; 250 g ai/ha)
20: Plant response rating, Redstem [7]
90: Flatsedge, Rice plant response rating ([8]; 64 g ai/ha)
85: Flatsedge, Rice plant response rating ([8]; 32 g ai/ha)
55%: pest or weed control at 250 g/ha ([2]; 250 g ai/ha, scale 0 to 100, read-out: Plant response rating, Chickweed)
60: Redstem plant response rating ([7]; 32 g ai/ha) | Redstem plant response rating ([7]; 64 g ai/ha) | Redstem plant response rating ([7]; 125 g ai/ha)
30%: pest or weed control at 125 g/ha ([1]; 125 g ai/ha, scale 0 to 100) | Corn plant response rating (crop injury, 0 = no effect, 100 = complete kill) at 250 g/ha (corn (Zea mays); pre-emergence, Preemergence, 250 g ai/ha, scale 0 to 100)
10: Rice, Transplanted plant response rating ([9]; 125 g ai/ha) | Rice, Transplanted plant response rating ([9]; 250 g ai/ha)

Nc1nc(-c2ccc(Cl)cc2)nc(C(=O)O)c1Cl [Compound 65, 6-amino-5-chloro-2-(4-chlorophenyl)-4-pyrimidinecarboxylic acid]
70%: pest or weed control at 31 g/ha [1, 11] | pest or weed control at 125 g/ha [2, 17]
100: Ducksalad plant response rating ([4]; 32 g ai/ha) | Ducksalad plant response rating ([4]; 64 g ai/ha) | Ducksalad plant response rating ([4]; 125 g ai/ha) | Ducksalad plant response rating ([4]; 250 g ai/ha) | Plant response rating, Ducksalad [4] | Flatsedge, Rice plant response rating ([8]; 64 g ai/ha) | Flatsedge, Rice plant response rating ([8]; 125 g ai/ha) | Flatsedge, Rice plant response rating ([8]; 250 g ai/ha)
80: Flatsedge, Rice plant response rating ([8]; 32 g ai/ha)
90%: Corn plant response rating (crop injury, 0 = no effect, 100 = complete kill) at 31 g/ha (corn (Zea mays); [12]) | Corn plant response rating (crop injury, 0 = no effect, 100 = complete kill) at 62 g/ha (corn (Zea mays); [12]) | Corn plant response rating (crop injury, 0 = no effect, 100 = complete kill) at 125 g/ha (corn (Zea mays); [13])
30: Redstem plant response rating ([7]; 32 g ai/ha) | Redstem plant response rating ([7]; 64 g ai/ha)
30%: Corn plant response rating (crop injury, 0 = no effect, 100 = complete kill) at 125 g/ha (corn (Zea mays); [15])
5%: Corn plant response rating (crop injury, 0 = no effect, 100 = complete kill) at 16 g/ha (corn (Zea mays); [12])
0: Sprangletop, Brdd. plant response rating ([3]; 32 g ai/ha) | Sprangletop, Brdd. plant response rating ([3]; 64 g ai/ha) | Plant response rating, Sprangletop, Brdd. [3] | Watergrass, Early plant response rating ([5]; 32 g ai/ha) | Watergrass, Early plant response rating ([5]; 64 g ai/ha) | Watergrass, Early plant response rating ([5]; 125 g ai/ha) | Plant response rating, Watergrass, Early [5] | Junglerice plant response rating ([6]; 32 g ai/ha) | Junglerice plant response rating ([6]; 64 g ai/ha) | Plant response rating, Junglerice [6] | Plant response rating, Redstem [7] | Plant response rating, Flatsedge, Rice [8] | Rice, Transplanted plant response rating ([9]; 32 g ai/ha) | Rice, Transplanted plant response rating ([9]; 64 g ai/ha) | Rice, Transplanted plant response rating ([9]; 125 g ai/ha) | Rice, Transplanted plant response rating ([9]; 250 g ai/ha) | Plant response rating, Rice, Transplanted [9] | Rice, Water Seeded plant response rating ([10]; 32 g ai/ha) | Rice, Water Seeded plant response rating ([10]; 64 g ai/ha) | Rice, Water Seeded plant response rating ([10]; 125 g ai/ha) | Plant response rating, Rice, Water Seeded [10]
40: Sprangletop, Brdd. plant response rating ([3]; 125 g ai/ha) | Sprangletop, Brdd. plant response rating ([3]; 250 g ai/ha) | Junglerice plant response rating ([6]; 125 g ai/ha) | Junglerice plant response rating ([6]; 250 g ai/ha)
0%: Corn plant response rating (crop injury, 0 = no effect, 100 = complete kill) at 16 g/ha (corn (Zea mays); [14]) | Corn plant response rating (crop injury, 0 = no effect, 100 = complete kill) at 31 g/ha (corn (Zea mays); [14]) | Corn plant response rating (crop injury, 0 = no effect, 100 = complete kill) at 62 g/ha (corn (Zea mays); [14])
95%: pest or weed control at 62 g/ha [1, 11]
10: Watergrass, Early plant response rating ([5]; 250 g ai/ha) | Rice, Water Seeded plant response rating ([10]; 250 g ai/ha)
40%: pest or weed control at 16 g/ha ([1]; 16 g ai/ha, scale 0 to 100, 0 no effect, 100 complete control)
50: Redstem plant response rating ([7]; 125 g ai/ha)
60%: pest or weed control at 16 g/ha ([2]; 16 g ai/ha, read-out: Plant response rating (scale of 0 to 100), Chickweed) | pest or weed control at 31 g/ha [2, 16] | pest or weed control at 62 g/ha [2, 16]
60: Redstem plant response rating ([7]; 250 g ai/ha)
